In the supplement of paper PMC5662764:
± gives the standard deviation of the averaged measurements.

Assays:
Experiment in all cases: normalised growth rate inhibition (GR value) relative to DMSO control (GR (1 = untreated growth, 0 = cytostasis, <0 = cytotoxic)); higher = less growth inhibition
Conditions in all cases: 72 h
MCF10A = tested on: MCF10A
Experimental: (§1)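 Breast cancer cell lines (BT-20, Hs 578T, MCF 10A, MCF7, MDA-MB-231, SK-BR-3) were plated in 384-well plates and treated 24 h later with drugs at six concentrations (0.04-10 µM). Viable cells were counted by Hoechst/dead-cell-stain imaging at 0 and 72 h. Counts were normalised to DMSO controls on the same plate to give the relative cell count and the growth-rate inhibition (GR) value; technical plate triplicates were averaged for each biological replicate.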

SKBR3 = tested on: SKBR3
Experimental: as §1

BT20 = tested on: BT20
Experimental: as §1

MCF7 = tested on: MCF7
Experimental: as §1

HS578T = tested on: HS578T
Experimental: as §1

MDAMB231 = tested on: MDAMB231
Experimental: as §1

SMILES | normalised growth rate inhibition (MCF10A; 0.04 µM) | normalised growth rate inhibition (MCF10A; 0.12 µM) | normalised growth rate inhibition (MCF10A; 0.37 µM) | normalised growth rate inhibition (MCF10A; 1.11 µM) | normalised growth rate inhibition (MCF10A; 3.33 µM) | normalised growth rate inhibition (MCF10A; 10 µM) | normalised growth rate inhibition (SKBR3; 0.04 µM) | normalised growth rate inhibition (SKBR3; 0.12 µM) | normalised growth rate inhibition (SKBR3; 0.37 µM) | normalised growth rate inhibition (SKBR3; 1.11 µM) | normalised growth rate inhibition (SKBR3; 3.33 µM) | normalised growth rate inhibition (SKBR3; 10 µM) | normalised growth rate inhibition (BT20; 0.04 µM) | normalised growth rate inhibition (BT20; 0.12 µM) | normalised growth rate inhibition (BT20; 0.37 µM) | normalised growth rate inhibition (BT20; 1.11 µM) | normalised growth rate inhibition (BT20; 3.33 µM) | normalised growth rate inhibition (BT20; 10 µM) | normalised growth rate inhibition (MCF7; 0.04 µM) | normalised growth rate inhibition (MCF7; 0.12 µM) | normalised growth rate inhibition (MCF7; 0.37 µM) | normalised growth rate inhibition (MCF7; 1.11 µM) | normalised growth rate inhibition (MCF7; 3.33 µM) | normalised growth rate inhibition (MCF7; 10 µM) | normalised growth rate inhibition (HS578T; 0.04 µM) | normalised growth rate inhibition (HS578T; 0.12 µM) | normalised growth rate inhibition (HS578T; 0.37 µM) | normalised growth rate inhibition (HS578T; 1.11 µM) | normalised growth rate inhibition (HS578T; 3.33 µM) | normalised growth rate inhibition (HS578T; 10 µM) | normalised growth rate inhibition (MDAMB231; 0.04 µM) | normalised growth rate inhibition (MDAMB231; 0.12 µM) | normalised growth rate inhibition (MDAMB231; 0.37 µM) | normalised growth rate inhibition (MDAMB231; 1.11 µM) | normalised growth rate inhibition (MDAMB231; 3.33 µM) | normalised growth rate inhibition (MDAMB231; 10 µM)
Cc1ncc(-c2ccnc(Nc3ccc(S(C)(=O)=O)cc3)n2)n1C(C)C [AZD-5438] | 0.958 ± 0.02 | 0.797 ± 0.087 | 0.42 ± 0.18 | -0.0201 ± 0.058 | -0.199 ± 0.24 | -0.188 ± 0.19 | 0.891 ± 0.036 | 0.628 ± 0.013 | 0.292 ± 0.086 | -0.137 ± 0.12 | -0.28 ± 0.15 | -0.453 ± 0.2 | 0.884 ± 0.086 | 0.655 ± 0.14 | 0.354 ± 0.2 | 0.0675 ± 0.11 | -0.117 ± 0.1 | -0.372 ± 0.15 | 0.798 ± 0.13 | 0.373 ± 0.11 | 0.0311 ± 0.046 | -0.106 ± 0.11 | -0.277 ± 0.036 | -0.438 ± 0.14 | 0.908 ± 0.037 | 0.679 ± 0.063 | 0.274 ± 0.069 | -0.0129 ± 0.054 | -0.104 ± 0.095 | -0.186 ± 0.093 | 0.849 ± 0.1 | 0.633 ± 0.069 | 0.31 ± 0.071 | -0.0453 ± 0.074 | -0.205 ± 0.15 | -0.308 ± 0.18
Cc1cc([C@@H](C)Nc2ccccc2C(=O)O)c2nc(N3CCOCC3)cc(=O)n2c1 [AZD-6482] | 0.993 ± 0.019 | 0.952 ± 0.056 | 0.938 ± 0.055 | 0.891 ± 0.094 | 0.842 ± 0.14 | 0.36 ± 0.24 | 0.988 ± 0.013 | 0.915 ± 0.063 | 1 ± 0.077 | 0.87 ± 0.072 | 0.404 ± 0.078 | -0.107 ± 0.21 | 0.974 ± 0.05 | 0.895 ± 0.079 | 0.758 ± 0.059 | 0.52 ± 0.078 | 0.245 ± 0.08 | -0.0918 ± 0.069 | 1.05 ± 0.078 | 0.954 ± 0.065 | 0.988 ± 0.066 | 0.906 ± 0.029 | 0.673 ± 0.078 | 0.0729 ± 0.13 | 0.929 ± 0.03 | 0.89 ± 0.023 | 0.855 ± 0.034 | 0.768 ± 0.039 | 0.678 ± 0.092 | 0.337 ± 0.16 | 0.932 ± 0.013 | 0.888 ± 0.0098 | 0.867 ± 0.023 | 0.752 ± 0.083 | 0.648 ± 0.11 | 0.446 ± 0.21
NC(=O)Nc1cc(-c2cccc(F)c2)sc1C(=O)N[C@H]1CCCNC1 [AZD-7762] | 0.878 ± 0.077 | 0.749 ± 0.11 | 0.647 ± 0.1 | 0.43 ± 0.097 | 0.188 ± 0.052 | -0.177 ± 0.082 | 0.0117 ± 0.2 | -0.11 ± 0.19 | -0.168 ± 0.17 | -0.273 ± 0.16 | -0.301 ± 0.14 | -0.341 ± 0.13 | 1.05 ± 0.054 | 0.874 ± 0.14 | 0.634 ± 0.15 | 0.262 ± 0.15 | -0.0616 ± 0.12 | -0.418 ± 0.099 | 0.27 ± 0.063 | 0.176 ± 0.061 | 0.0985 ± 0.048 | -0.000407 ± 0.031 | -0.103 ± 0.015 | -0.276 ± 0.042 | 0.41 ± 0.2 | 0.0861 ± 0.15 | -0.0107 ± 0.13 | -0.108 ± 0.14 | -0.187 ± 0.13 | -0.289 ± 0.13 | 0.7 ± 0.19 | 0.387 ± 0.1 | 0.196 ± 0.21 | -0.0971 ± 0.13 | -0.246 ± 0.14 | -0.29 ± 0.16
COc1ccc(-c2ccc3c(N4CCOC[C@@H]4C)nc(N4CCOC[C@@H]4C)nc3n2)cc1CO [AZD-8055] | 0.494 ± 0.1 | 0.296 ± 0.088 | 0.205 ± 0.048 | 0.175 ± 0.027 | 0.146 ± 0.012 | -0.102 ± 0.39 | -0.0402 ± 0.13 | -0.0898 ± 0.17 | -0.0997 ± 0.15 | -0.12 ± 0.1 | -0.137 ± 0.12 | -0.363 ± 0.15 | 0.3 ± 0.14 | 0.179 ± 0.12 | 0.0816 ± 0.063 | 0.0556 ± 0.071 | -0.00646 ± 0.086 | -0.306 ± 0.36 | 0.0296 ± 0.035 | -0.00352 ± 0.044 | -0.0152 ± 0.064 | -0.00932 ± 0.072 | -0.0344 ± 0.067 | -0.216 ± 0.23 | 0.255 ± 0.041 | 0.187 ± 0.031 | 0.176 ± 0.022 | 0.16 ± 0.023 | 0.111 ± 0.073 | -0.22 ± 0.29 | 0.484 ± 0.046 | 0.317 ± 0.048 | 0.245 ± 0.0043 | 0.224 ± 0.015 | 0.146 ± 0.099 | -0.0657 ± 0.25
Cc1cc(C(=O)NOCCO)c(Nc2ccc(I)cc2F)n(C)c1=O [AZD-8330] | 0.0964 ± 0.11 | 0.0999 ± 0.1 | 0.113 ± 0.08 | 0.131 ± 0.068 | 0.142 ± 0.075 | 0.143 ± 0.1 | 0.497 ± 0.12 | 0.64 ± 0.045 | 0.708 ± 0.055 | 0.76 ± 0.064 | 0.778 ± 0.048 | 0.814 ± 0.076 | 0.685 ± 0.018 | 0.741 ± 0.034 | 0.748 ± 0.0083 | 0.739 ± 0.025 | 0.786 ± 0.01 | 0.803 ± 0.022 | 0.331 ± 0.077 | 0.33 ± 0.043 | 0.342 ± 0.041 | 0.41 ± 0.049 | 0.405 ± 0.029 | 0.465 ± 0.025 | 0.244 ± 0.066 | 0.212 ± 0.072 | 0.217 ± 0.11 | 0.213 ± 0.11 | 0.217 ± 0.1 | 0.197 ± 0.11 | 0.0852 ± 0.054 | 0.0627 ± 0.033 | 0.0584 ± 0.026 | 0.0698 ± 0.013 | 0.0774 ± 0.044 | 0.0933 ± 0.0085
CC[C@@H]1C(=O)N(C)c2cnc(Nc3ccc(C(=O)NC4CCN(C)CC4)cc3OC)nc2N1C1CCCC1 [BI-2536] | -0.0473 ± 0.13 | -0.0192 ± 0.14 | 0.00696 ± 0.13 | 1.1e-05 ± 0.11 | -0.0132 ± 0.098 | 0.00366 ± 0.082 | -0.136 ± 0.22 | -0.151 ± 0.18 | -0.109 ± 0.23 | -0.15 ± 0.23 | -0.158 ± 0.2 | -0.208 ± 0.25 | -0.177 ± 0.15 | -0.203 ± 0.19 | -0.198 ± 0.17 | -0.163 ± 0.16 | -0.143 ± 0.14 | -0.137 ± 0.17 | 0.101 ± 0.044 | 0.0593 ± 0.017 | 0.0551 ± 0.044 | 0.0492 ± 0.066 | 0.0223 ± 0.047 | -0.191 ± 0.038 | -0.128 ± 0.11 | -0.125 ± 0.14 | -0.0972 ± 0.11 | -0.0687 ± 0.11 | -0.0582 ± 0.1 | -0.125 ± 0.16 | 0.0155 ± 0.14 | 0.00874 ± 0.1 | 0.00566 ± 0.14 | 0.0242 ± 0.14 | 0.0274 ± 0.12 | -0.0537 ± 0.25
O=C(Nc1cccc(Nc2ncc(Br)c(NCCc3cnc[nH]3)n2)c1)N1CCCC1 [BX-912] | 0.95 ± 0.0022 | 0.92 ± 0.062 | 0.648 ± 0.3 | 0.206 ± 0.067 | 0.172 ± 0.068 | 0.0883 ± 0.057 | 0.724 ± 0.1 | 0.719 ± 0.089 | 0.175 ± 0.19 | -0.0702 ± 0.08 | -0.0412 ± 0.053 | -0.0312 ± 0.089 | 0.8964 ± 0.0089 | 0.943 ± 0.034 | 0.936 ± 0.034 | 0.939 ± 0.032 | 0.839 ± 0.12 | 0.355 ± 0.13 | 0.816 ± 0.053 | 0.866 ± 0.058 | 0.731 ± 0.17 | 0.459 ± 0.1 | 0.293 ± 0.063 | 0.0193 ± 0.03 | 0.967 ± 0.021 | 0.906 ± 0.045 | 0.756 ± 0.16 | 0.375 ± 0.042 | 0.143 ± 0.076 | -0.103 ± 0.14 | 0.903 ± 0.0098 | 0.901 ± 0.083 | 0.694 ± 0.32 | 0.404 ± 0.23 | 0.194 ± 0.14 | -0.0228 ± 0.27
